# Measured values published in patent US20130267474A1, “NOVEL PHYTOCHEMICALS FROM EXTRACTS OF MAPLE SYRUPS AND MAPLE TREES AND USES THEREOF” (UNIVERSITY OF RHODE ISLAND, priority 2010, published 2013).
# Like-named read-outs stand apart in the source and are kept apart here.
# Experiments:
# [1] = tested on: HCT-116 (human colon carcinoma); assay: MTS cytotoxicity / antiproliferative assay; format: cell-based
# Description: (§1) Cell lines included three human colon cancer cells: HT-29 (human colon adenocarcinoma), HCT116 (human colon carcinoma) and Caco-2 (human epithelial colorectal adenocarcinoma). In addition, normal human colon cells are included: CCD-^18Co (human colon fibroblasts). All cell lines are obtained from the American Type Culture Collection (ATCC, Rockville, Md., USA) and maintained at the University of Rhode Island.
# (§2) The assay is carried out to measure the IC50 values for samples. […] Test samples and a positive control, etoposide 4 mg/mL (Sigma), are solubilized in DMSO by sonication. […] Control wells are also included on all plates. […] Each point on the curve is […]. Data (see tables 6 to 9) are expressed as mean±SE for three replications on each cell line.
# [2] = tested on: HT-29 (human colon adenocarcinoma); assay: MTS cytotoxicity / antiproliferative assay; format: cell-based
# Description: as §1, §2
# [3] = tested on: Caco-2 (human epithelial colorectal adenocarcinoma); assay: MTS cytotoxicity / antiproliferative assay; format: cell-based
# Description: as §1, §2
# [4] = DPPH radical scavenging (antioxidant) assay; format: biochemical; settings: for IC50, DPPH radical scavenging, converted (ca.): conversion of the μM value
# Description: The DPPH radical scavenging activity of ascorbic acid (vitamin C) and the synthetic commercial antioxidant, butylated hydroxytoluene (BHT) are also assayed as positive controls (see Table 10). […] Absorbance is determined after 30 min at 515 nm, and the scavenging capacity (SC) is calculated as SC %=[(A0−A1/A0)]×100, where A0 is the absorbance of the reagent blank and A1 is the absorbance of the test samples. The control contained all reagents except the compounds, and all tests are performed in triplicate.
# Absorbance is determined after 30 min at 515 nm, and the scavenging capacity (SC) is calculated as SC %=[(A0−A1/A0)]×100 where A0 is the absorbance of the reagent blank, and A1 is the absorbance with test samples. The control contained all reagents except the compounds and all tests are performed in triplicate.
# [5] = Homo sapiens, HCT-116, 48 h, read-out: Antiproliferative activity HCT-116 48 h (IC50), 48 h, pure isolated compounds
# [6] = Homo sapiens, HCT-116, 72 h, 72 h, pure isolated compounds, read-out: Antiproliferative activity HCT-116 72 h (IC50)
# [7] = Homo sapiens, HCT-116, 72 h, 72 h, range given for the group, read-out: IC50 against HCT-116 cells at 72 h (activity ranking)
# [8] = Homo sapiens, HT-29, 48 h, read-out: Antiproliferative activity HT-29 48 h (IC50), 48 h, pure isolated compounds
# [9] = Homo sapiens, HT-29, 72 h, 72 h, pure isolated compounds, read-out: Antiproliferative activity HT-29 72 h (IC50)
# [10] = Homo sapiens, HCT-116, 48 h, read-out: HCT-116 48 h(IC50), Table 6 maple compounds, 48 h, unit inferred
# [11] = Homo sapiens, HCT-116, 72 h, Table 6 maple compounds, 72 h, unit inferred, read-out: HCT-116 72 h(IC50)
# [12] = Homo sapiens, Caco-2, 72 h, 72 h, pure isolated compounds, read-out: Antiproliferative activity Caco-2 72 h (IC50)
# [13] = Table 10, mean ± standard deviation, 30 min, 515 nm, read-out: IC50 (μM), DPPH radical scavenging
compound,measurement,setting,value
COc1cc(CCCO)ccc1OC(CO)C(O)c1ccc(OC2OC(C)C(O)C(O)C2O)c(OC)c1 (stereo not shown) [compound 55],IC50,[1]; [5],119 ± 1.4 µM
same,IC50,[1]; [6],104 ± 1.7 µM
same,IC50,[1]; [7],94 to 110 µM
same,IC50,[2]; [8],128.2 ± 1.1 µM
same,IC50,[2]; [9],121 ± 1.3 µM
"O=C(O)c1cc(O)c(O)c(O)c1 [compound 17, gallic acid]",IC50,[1]; [5],64.9 ± 2.3 µM
same,IC50,[1]; [10],64.9 µM
same,IC50,[1]; [6],42.1 ± 1.9 µM
same,IC50,[1]; [7],42 to 67 µM
same,IC50,[1]; [11],42.1 µM
same,IC50,[3]; [12],89.3 ± 1.7 µM
same,IC50,"[3]; Homo sapiens, Caco-2, 72 h, Table 6 maple compounds, 72 h, unit inferred, read-out: Caco-2 72 h(IC50)",89.3 µM
trimethyl gallic acid methyl ester [compound 18],IC50,[4]; [13],112 ± 5.1 µM
gallic acid [compound 17],IC50,[4]; [13],703 ± 141 µM
"O=C(O[C@H]1CO[C@H](CO)[C@@H](O)[C@@H]1O)c1cc(O)c(O)c(O)c1 [compound 72, ginnalin-C]",HCT-116 48 h IC50,"[1]; 48 h, ginnalins",27.0 ± 1.9 µg/mL
same,HCT-116 72 h IC50,"[1]; 72 h, ginnalins",22.3 ± 2.4 µg/mL
same,IC50,"[1]; Table 6 maple compounds, 72 h, unit inferred, read-out: HCT-116 72 h(IC50)",70.7 µM
same,IC50,"[1]; read-out: HCT-116 48 h(IC50), Table 6 maple compounds, 48 h, unit inferred",86.5 µM
same,HT-29 48 h IC50,"[2]; 48 h, ginnalins",33.8 ± 2.0 µg/mL
same,HT-29 72 h IC50,"[2]; 72 h, ginnalins",30.1 ± 1.3 µg/mL
same,IC50,"[2]; Table 6 maple compounds, 72 h, unit inferred, read-out: HT-29 72 h(IC50)",95.4 µM
same,IC50,"[2]; read-out: HT-29 48 h(IC50), Table 6 maple compounds, 48 h, unit inferred",107 µM
same,Caco-2 48 h IC50,"[3]; 48 h, ginnalins",35.0 ± 1.4 µg/mL
same,Caco-2 72 h IC50,"[3]; 72 h, ginnalins",29.8 ± 1.2 µg/mL
same,IC50,"[3]; Table 6 maple compounds, 72 h, unit inferred, read-out: Caco-2 72 h(IC50)",94.4 µM
same,IC50,"[3]; read-out: Caco-2 48 h(IC50), Table 6 maple compounds, 48 h, unit inferred",111 µM
"COc1cc(C=O)ccc1O [compound 15, vanillin]",IC50,[4]; [13],1810 ± 266 µM
same,IC50,[1]; [5],120.3 ± 1 µM
same,IC50,[1]; [10],120 µM
same,IC50,[1]; [6],110 ± 1.7 µM
same,IC50,[1]; [7],94 to 110 µM
same,IC50,[1]; [11],110 µM
same,IC50,[2]; [9],114 ± 1.5 µM
same,IC50,"[2]; Homo sapiens, HT-29, 72 h, Table 6 maple compounds, 72 h, unit inferred, read-out: HT-29 72 h(IC50)",114 µM
"Oc1ccc(O)c(O)c1 [compound 52, 4-hydroxycatechol]",IC50,[1]; [5],95 ± 3.4 µM
same,IC50,[1]; [6],57.7 ± 3.4 µM
same,IC50,[1]; [7],42 to 67 µM
same,IC50,[2]; [8],110 ± 2.3 µM
same,IC50,[2]; [9],100 ± 1.5 µM
same,IC50,"[3]; Homo sapiens, Caco-2, 48 h, read-out: Antiproliferative activity Caco-2 48 h (IC50), 48 h, pure isolated compounds",89.2 ± 1.9 µM
same,IC50,[3]; [12],78.6 ± 1.2 µM
lyoniresinol [compound 1],IC50,[4]; [13],946 ± 58.5 µM
catechol [compound 23],IC50,[4]; [13],10100 ± 1670 µM
"COc1cc(C(O)C(CO)Oc2c(OC)cc(CCCO)cc2OC)ccc1O (stereo not drawn) [compound 30, erythro-1-(4-hydroxy-3-methoxyphenyl)-2-[4-(3-hydroxypropyl)-2,6-dimethoxyphenoxy]-1,3-propanediol]",IC50,[4]; [13],904 µM
"COc1cc(C(O)C(CO)Oc2c(OC)cc(C(O)C(O)CO)cc2OC)ccc1O (stereo not drawn) [compound 25, (erythro,erythro)-1-[4-[2-hydroxy-2-(4-hydroxy-3-methoxyphenyl)-1-(hydroxymethyl)ethoxy]-3,5-dimethoxyphenyl]-1,2,3-propanetriol]",IC50,[4]; [13],97.8 ± 24 µM
"O=C1O[C@H]([C@@H](O)CO)C(O)=C1O [Ascorbic acid, reference compound]",IC50,[4]; [13],40.2 ± 13.4 µM
same,"IC50, DPPH radical scavenging, converted (ca.)",[4],ca. 7.08 μg/mL
same,IC50,"[4]; listed as Vitamin C, read-out: IC50, DPPH radical scavenging (text)",40 µM
same,IC50,"[4]; listed as vitamin C, read-out: IC50, DPPH radical scavenging (text)",58 µM
syringic acid [compound 19],IC50,[4]; [13],258 ± 33.8 µM
"Cc1cc(C(C)(C)C)c(O)c(C(C)(C)C)c1 [BHT, butylated hydroxytoluene, reference compound]",IC50,[4]; [13],3000 ± 1120 µM
same,"IC50, DPPH radical scavenging, converted (ca.)",[4],ca. 660 μg/mL
same,IC50,"[4]; running text, listed as butylatedhydroxytoluene, read-out: IC50, DPPH radical scavenging (text)",2650 µM
same,IC50,"[4]; running text, read-out: IC50, DPPH radical scavenging (text)",3000 µM
COc1cc(C(O)C(CO)Oc2ccc(C(O)C(O)CO)cc2OC)ccc1O (stereo not shown) [compound 27],IC50,[4]; [13],164 ± 15.2 µM
